In assay [1] the test system is ECHCG. In words: greenhouse post-emergence herbicidal test. Type of assay: in vivo, Echinocloa crus-galli. To be noted: post-emergence method, scale from 0 to 100. An outline of the steps: (§1)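 Greenhouse plants, grown to 3–15 cm, were treated post-emergence with emulsified or suspended compound and assessed over 2–4 weeks on a 0–100 damage scale.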
The next assay relates to AMARE. Briefly: greenhouse post-emergence herbicidal test. Format: in vivo, Amaranthus retroflexus. To be noted: post-emergence method, scale from 0 to 100. The source says: (§2) The seeds of the test plants were sown separately for each species. For the post-emergence treatment, the test plants were first grown to a height of 3 to 15 cm, depending on the plant habit, and only then treated with the active ingredients which had been suspended or emulsified in water. For this purpose, the test plants were either sown directly and grown in the same containers, or they were first grown separately as seedlings and transplanted into the test containers a few days prior to treatment. Depending on the species, the plants were kept at 10-25° C. or 20-35° C., respectively. The test period extended over 2 to 4 weeks. During this time, the plants were tended, and their response to the individual treatments was evaluated. Evaluation was carried out using a scale from 0 to 100. 100 means no emergence of the plants, or complete destruction of at least the aerial moieties, and 0 means no damage, or normal course of growth. […] The plants used in the greenhouse experiments were of the following species: [table]

Another assay concerns APESV. Briefly: greenhouse pre-emergence herbicidal test. The note with it: pre-emergence method, scale from 0 to 100. Format: in vivo, Apera spica-venti. An outline of the steps:
(§3)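 After each species was sown separately, test compounds in water were applied at once with finely distributing nozzles. Containers were then irrigated and covered until rooting, held at species-dependent temperatures (10-25° C. or 20-35° C.), and assessed over 2 to 4 weeks on a 0-100 injury scale.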

The test system of assay [2] is ECHCG. Briefly: greenhouse pre-emergence herbicidal test. Format: in vivo, Echinocloa crus-galli. To be noted: pre-emergence method, scale from 0 to 100. An outline of the steps:
as §3

A further assay relates to AVEFA. In words: greenhouse post-emergence herbicidal test. To be noted: post-emergence method, scale from 0 to 100. Type of assay: in vivo, Avena fatua.
Excerpt: as §2

Another assay deals with ALOMY. In words: greenhouse post-emergence herbicidal test. Format: in vivo, Alopercurus myosuroides. The note with it: post-emergence method, scale from 0 to 100. In short, it runs like this: as §1

Experimental findings from patent US10420341B2, “Herbicidal phenylpyrimidines” (BASF SE, priority 2015, dated 2019) are described below.

As for `Cc1ccccc1-c1cnc(OC(C)C)nc1C(=O)O` [example 72], in the assay on ECHCG [1] (application rate 500 g/ha), the “herbicidal activity against ECHCG” value is listed as “very good (a very good herbicidal activity is given at values of at least 85)”. Besides, the “herbicidal activity against AMARE” value with AMARE (application rate 500 g/ha) was “very good (a very good herbicidal activity is given at values of at least 85)”.
With `CSc1ncc(-c2cc(C)ccc2C)c(C(=O)O)n1` [example 92], in the assay on APESV (application rate 2000 g/ha), the “herbicidal activity against APESV” value is “good (A good herbicidal activity is given at values of at least 70)”. Moreover, the “herbicidal activity against ECHCG” value with ECHCG [1] (application rate 2000 g/ha) was “good (A good herbicidal activity is given at values of at least 70)”; with ECHCG [2] (application rate 2000 g/ha), “very good (a very good herbicidal activity is given at values of at least 85)”. Further, the “herbicidal activity against AMARE” value in the assay with AMARE (application rate 2000 g/ha) was “very good (a very good herbicidal activity is given at values of at least 85)”.
`CSc1ncc(-c2cc(C(F)(F)F)ccc2C)c(C(=O)O)n1` [example 93]: in the assay with AMARE (application rate 2000 g/ha), the “herbicidal activity against AMARE” value is reported as “very good (a very good herbicidal activity is given at values of at least 85)”.
With `CSc1ncc(-c2ccc(C)cc2C)c(C(=O)O)n1` [example 97], the “herbicidal activity against ECHCG” value in the assay with ECHCG [1] (application rate 2000 g/ha) was “good (A good herbicidal activity is given at values of at least 70)”. The “herbicidal activity against AMARE” value in the assay with AMARE (application rate 2000 g/ha) is on record as “very good (a very good herbicidal activity is given at values of at least 85)”.
As to `CSc1ncc(-c2cccc(C)c2C)c(C(=O)O)n1` [example 102], in the assay on AMARE (application rate 2000 g/ha), the “herbicidal activity against AMARE” value is “very good (a very good herbicidal activity is given at values of at least 85)”.
Take `CSc1ncc(-c2ccccc2C(C)C)c(C(=O)O)n1` [example 103]: the results for the “herbicidal activity against ECHCG” value in the assay with ECHCG [1] (application rate 2000 g/ha) and with ECHCG [2] (application rate 2000 g/ha) were “very good (a very good herbicidal activity is given at values of at least 85)” and “good (A good herbicidal activity is given at values of at least 70)”, respectively. The “herbicidal activity against AMARE” value with AMARE (application rate 2000 g/ha) is reported as “very good (a very good herbicidal activity is given at values of at least 85)”.
Consider `COc1ccc(C(F)(F)F)cc1-c1cnc(SC)nc1C(=O)O` [example 107], for which the “herbicidal activity against AMARE” value in the assay on AMARE (application rate 2000 g/ha) is “very good (a very good herbicidal activity is given at values of at least 85)”.
As to `COc1ccc(OC)c(-c2cnc(SC)nc2C(=O)O)c1` [example 108], the “herbicidal activity against ECHCG” value in the assay on ECHCG [2] (application rate 2000 g/ha) is “very good (a very good herbicidal activity is given at values of at least 85)”. In the assay with AMARE (application rate 2000 g/ha), the “herbicidal activity against AMARE” value is listed as “very good (a very good herbicidal activity is given at values of at least 85)”.
On to `CCSc1ccccc1-c1cnc(SC)nc1C(=O)O` [example 113], for which, in the assay on AMARE (application rate 2000 g/ha), the “herbicidal activity against AMARE” value is recorded as “very good (a very good herbicidal activity is given at values of at least 85)”.
Turning to `Cc1ccccc1-c1cnc([S+](C)[O-])nc1C(=O)O` (stereo not shown) [example 126], the “herbicidal activity against AMARE” value with AMARE (application rate 2000 g/ha) was “very good (a very good herbicidal activity is given at values of at least 85)”.
Take `COC(=O)c1nc(C2CC2)ncc1-c1c(Br)ccc(OC)c1Cl` [example 212]: the “herbicidal activity against ECHCG” value in the assay on ECHCG [1] (application rate 500 g/ha) is given as “very good (a very good herbicidal activity is given at values of at least 85)”. Besides, in the assay on AMARE (application rate 500 g/ha), the “herbicidal activity against AMARE” value is “very good (a very good herbicidal activity is given at values of at least 85)”.
Turning to `CCc1ccccc1-c1cnc(C2CC2)nc1C(=O)OC` [example 237], the “herbicidal activity against ECHCG” value in the assay with ECHCG [1] (application rate 1000 g/ha) and in the assay with ECHCG [2] (application rate 1000 g/ha) was “very good (a very good herbicidal activity is given at values of at least 85)” in each case. Further, the “herbicidal activity against AMARE” value with AMARE (application rate 1000 g/ha) is “very good (a very good herbicidal activity is given at values of at least 85)”.
For `COC(=O)c1nc(C2CC2)ncc1-c1ccccc1OC(F)F` [example 242], the entries for the “herbicidal activity against ECHCG” value in the assay on ECHCG [1] (application rate 500 g/ha) and in the assay on ECHCG [2] (application rate 500 g/ha) were “good (A good herbicidal activity is given at values of at least 70)” and “very good (a very good herbicidal activity is given at values of at least 85)”, respectively. Moreover, the “herbicidal activity against AMARE” value in the assay on AMARE (application rate 500 g/ha) is listed as “very good (a very good herbicidal activity is given at values of at least 85)”.
For the molecule `O=C(OCc1ccccc1)c1nc(C2CC2)ncc1-c1ccccc1Cl` [example 254], the “herbicidal activity against APESV” value with APESV (application rate 1000 g/ha) is given as “very good (a very good herbicidal activity is given at values of at least 85)”. In addition, the “herbicidal activity against ECHCG” value with ECHCG [1] (application rate 1000 g/ha) and with ECHCG [2] (application rate 1000 g/ha) was “very good (a very good herbicidal activity is given at values of at least 85)” in each case. In the assay with AVEFA (application rate 1000 g/ha), the “herbicidal activity against AVEFA” value is “very good (a very good herbicidal activity is given at values of at least 85)”. Also, the “herbicidal activity against ALOMY” value with ALOMY (application rate 1000 g/ha) is on record as “very good (a very good herbicidal activity is given at values of at least 85)”.
In the case of `O=C(Oc1ccccc1)c1nc(C2CC2)ncc1-c1ccccc1Cl` [example 255], the “herbicidal activity against APESV” value with APESV (application rate 1000 g/ha) is “very good (a very good herbicidal activity is given at values of at least 85)”. Further, the “herbicidal activity against ECHCG” value with ECHCG [1] (application rate 1000 g/ha) and in the assay on ECHCG [2] (application rate 1000 g/ha) was “very good (a very good herbicidal activity is given at values of at least 85)” each time. In the assay on AVEFA (application rate 1000 g/ha), the “herbicidal activity against AVEFA” value is given as “very good (a very good herbicidal activity is given at values of at least 85)”. Moreover, in the assay with ALOMY (application rate 1000 g/ha), the “herbicidal activity against ALOMY” value was “very good (a very good herbicidal activity is given at values of at least 85)”.
As for `COc1ccc(OC(=O)c2nc(C3CC3)ncc2-c2ccccc2Cl)cc1` [example 259], the “herbicidal activity against APESV” value in the assay with APESV (application rate 500 g/ha) is listed as “very good (a very good herbicidal activity is given at values of at least 85)”. The “herbicidal activity against ECHCG” value in the assay with ECHCG [1] (application rate 500 g/ha) is “good (A good herbicidal activity is given at values of at least 70)”; in the assay on ECHCG [2] (application rate 500 g/ha), “very good (a very good herbicidal activity is given at values of at least 85)”. In addition, the “herbicidal activity against AVEFA” value in the assay on AVEFA (application rate 500 g/ha) is recorded as “very good (a very good herbicidal activity is given at values of at least 85)”. Besides, in the assay with ALOMY (application rate 500 g/ha), the “herbicidal activity against ALOMY” value was “very good (a very good herbicidal activity is given at values of at least 85)”.
As for `O=C(SCc1ccccc1)c1nc(C2CC2)ncc1-c1ccccc1Cl` [example 280], the “herbicidal activity against APESV” value in the assay with APESV (application rate 500 g/ha) is given as “very good (a very good herbicidal activity is given at values of at least 85)”. Further, in the assay on AMARE (application rate 500 g/ha), the “herbicidal activity against AMARE” value was “very good (a very good herbicidal activity is given at values of at least 85)”.
On to `C=Cc1ncc(-c2ccccc2Cl)c(C(=O)OC)n1` [example 292], for which the “herbicidal activity against AMARE” value in the assay with AMARE (application rate 1000 g/ha) was “very good (a very good herbicidal activity is given at values of at least 85)”.
With `COC(=O)c1nc(C2CC2(F)F)ncc1-c1ccccc1Cl` (stereo not shown) [example 293], the “herbicidal activity against AMARE” value with AMARE (application rate 1000 g/ha) is reported as “good (A good herbicidal activity is given at values of at least 70)”.
Turning to `COC(=O)c1nc(C2CC2)ncc1-c1ccc(OC)cc1F` [example 295], the “herbicidal activity against AMARE” value in the assay on AMARE (application rate 500 g/ha) was “good (A good herbicidal activity is given at values of at least 70)”.
As to `O=C(O)c1nc(C2CC2)ncc1-c1ccccc1I` [example 311], the “herbicidal activity against APESV” value with APESV (application rate 500 g/ha) is given as “very good (a very good herbicidal activity is given at values of at least 85)”. Moreover, the “herbicidal activity against ECHCG” value in the assay with ECHCG [1] (application rate 500 g/ha) and with ECHCG [2] (application rate 500 g/ha) was “very good (a very good herbicidal activity is given at values of at least 85)” throughout. Further, the “herbicidal activity against AVEFA” value with AVEFA (application rate 500 g/ha) is “very good (a very good herbicidal activity is given at values of at least 85)”. In addition, the “herbicidal activity against ALOMY” value in the assay with ALOMY (application rate 500 g/ha) was “very good (a very good herbicidal activity is given at values of at least 85)”.
Regarding `COC(=O)c1nc(C2CC2)ncc1-c1ccccc1I` [example 312], the “herbicidal activity against APESV” value in the assay with APESV (application rate 500 g/ha) is recorded as “very good (a very good herbicidal activity is given at values of at least 85)”. In addition, the “herbicidal activity against ECHCG” value in the assay on ECHCG [1] (application rate 500 g/ha) and with ECHCG [2] (application rate 500 g/ha) was “very good (a very good herbicidal activity is given at values of at least 85)” throughout. In addition, the “herbicidal activity against AVEFA” value in the assay on AVEFA (application rate 500 g/ha) is “very good (a very good herbicidal activity is given at values of at least 85)”. Further, the “herbicidal activity against ALOMY” value in the assay on ALOMY (application rate 500 g/ha) is listed as “very good (a very good herbicidal activity is given at values of at least 85)”.
Take `O=C(O)c1nc(C(F)(F)F)ncc1-c1ccccc1Cl` [example 315]: the “herbicidal activity against APESV” value with APESV (application rate 1000 g/ha) is reported as “good (A good herbicidal activity is given at values of at least 70)”. Besides, the “herbicidal activity against ECHCG” value in the assay with ECHCG [1] (application rate 1000 g/ha) is “good (A good herbicidal activity is given at values of at least 70)”; in the assay with ECHCG [2] (application rate 1000 g/ha) it was “very good (a very good herbicidal activity is given at values of at least 85)”. The “herbicidal activity against AVEFA” value with AVEFA (application rate 1000 g/ha) was “good (A good herbicidal activity is given at values of at least 70)”. Also, the “herbicidal activity against ALOMY” value in the assay on ALOMY (application rate 1000 g/ha) is listed as “good (A good herbicidal activity is given at values of at least 70)”.
